Like-named read-outs stand apart in the source and are kept apart here. Peptide text beside a SMILES is read from it.
Columns and labels:
MDA-MB-231 cells = assay: In vitro cell binding assay of 125I-labeled peptides; type: cell-based, human; settings: 37°C, mean ± SD, triplicate; for binding fraction to cells, B/(B + F) × 100%: γ counter
Method: Cells were incubated with ^125I-WT-pHLIP or ^125I-Var3-pHLIP for 1 h at 37°C in the medium at different pH values ranging from 6.2 to 7.8 (6.2, 6.6, 7.0, 7.4, 7.8). At the same time, cells in the medium at pH 6.2 were further incubated with ^125I-labeled peptide with an excess of unlabeled peptide (25 μg/well). The supernatant was aspirated into a tube. The cells were then washed twice with PBS of the corresponding pH to remove unbound radioactivity. The wash solution was also added to the supernatant tube containing free radioactivity (F). The cells with bound radioactivity (B) were completely lysed with 300 μl sodium hydroxide and aspirated into a cell tube. The radioactive counts of the cell and supernatant tube were measured by a γ counter. The cell binding fraction of the ^125I-labeled peptides was calculated as B/(B + F) × 100%. All experiments were performed in triplicate.

[1] = Micro-SPECT/CT imaging and distribution of 125I-labeled pHLIPs; type: in vivo, mouse; settings: female, mouse, total radioactivity, 3.7 MBq iv, micro-SPECT/CT ROI, mean ± SD, n = 4; for tissue uptake at 1 h: 1 h pi; for tissue uptake at 2 h: 2 h pi; for tissue uptake at 4 h: 4 h pi; for tissue uptake at 24 h: 24 h pi; for tissue uptake at 48 h: 48 h pi
Method: Five-week-old female athymic BALB/c nude mice (Shanghai Slaccas Experiment Animal Corp., Shanghai, China) were used in our study. Mouse xenograft models of MDA-MB-231, 4T1, and SK-BR-3 cells were produced by the subcutaneous injection of 5 × 10^6 cells (suspended in 150 μL PBS) into the right axilla of each mouse. The mice were used in subsequent experiments when tumor diameter reached 0.5-0.9 cm. The study protocol was approved by the institutional review board and by the Experimental Animal Center of Ruijin Hospital affiliated to the School of Medicine of Shanghai Jiao Tong University.
Three days before micro-SPECT/CT imaging, 300 μL of 1% Kl solution was administered to mice by oral gavage once a day, and 0.1% Kl was added into the drinking water to block thyroid gland activity. Mice-bearing MDA-MB-231, 4T1, or SK-BR-3 tumors were intravenously injected with 3.7 MBq of ^125I-WT-pHLIP or ^125I-Var3-pHLIP. Each group contained four mice. The mice were anesthetized by isoflurane inhalation, placed in the prone position, and scanned using a four-head SPECT/CT system (U-SPECT/CT, MI-Lab, Netherlands) and dedicated multipinhole apertures with a diameter of 1.5 mm at 1, 2, 4, 24, and 48 h after injection of ^125I-labeled peptides. CT images were acquired after static SPECT imaging (10 min/frame). The images were reconstructed using U-SPECT REC software and analyzed using PMOD software version 3.9 (Switzerland). Regions of interest (ROIs) were drawn in the tumors and organs, including the brain, heart, liver, lungs, kidneys, intestine, and bladder, at various time points. The radioactivity per gram (ID%/g) in the ROIs was measured to obtain the dynamic tumor-to-background ratio (TBR, muscle tissue was used as the background) and the in vivo distribution and kinetics of ^125I-WT-pHLIP and ^125I-Var3-pHLIP in the xenograft models of BC.

[2] = BALB/c nude, bladder, MDA-MB-231 tumor-bearing nude mice, read-out: Distribution, Bladder
[3] = BALB/c nude, intestine, MDA-MB-231 tumor-bearing nude mice, read-out: Distribution, Intestine
[4] = BALB/c nude, muscle, MDA-MB-231 tumor-bearing nude mice, read-out: Distribution, Muscle
[5] = BALB/c nude, MDA-MB-231 tumor-bearing nude mice, read-out: Distribution, Tumor
[6] = BALB/c nude, SK-BR-3 tumor-bearing nude mice, read-out: Distribution, Tumor
[7] = athymic BALB/c nude, bladder, SK-BR-3 tumor-bearing nude mice, read-out: Distribution, Bladder
[8] = athymic BALB/c nude, brain, MDA-MB-231 tumor-bearing nude mice, read-out: Distribution, Brain
[9] = athymic BALB/c nude, brain, SK-BR-3 tumor-bearing nude mice, read-out: Distribution, Brain
[10] = athymic BALB/c nude, heart, MDA-MB-231 tumor-bearing nude mice, read-out: Distribution, Heart

CC(C)C[C@H](NC(=O)[C@H](Cc1ccc(O)c(I)c1)NC(=O)[C@H](C)NC(=O)[C@H](CCCNC(=N)N)NC(=O)[C@H](Cc1c[nH]c2ccccc12)NC(=O)[C@@H]1CCCN1C(=O)[C@H](CC(N)=O)NC(=O)[C@H](CCC(N)=O)NC(=O)[C@H](CC(=O)O)NC(=O)[C@H](CC(=O)O)NC(=O)[C@H](CS)NC(=O)[C@H](C)N)C(=O)N[C@@H](CC(=O)O)C(=O)N[C@@H](CC(C)C)C(=O)N[C@@H](CC(C)C)C(=O)N[C@@H](Cc1ccccc1)C(=O)N1CCC[C@H]1C(=O)N[C@H](C(=O)N[C@@H](CC(=O)O)C(=O)N[C@H](C(=O)N[C@@H](CC(C)C)C(=O)N[C@@H](CC(C)C)C(=O)N[C@@H](CC(C)C)C(=O)N[C@@H](CC(=O)O)C(=O)N[C@@H](CC(C)C)C(=O)N[C@@H](CC(C)C)C(=O)N[C@@H](Cc1c[nH]c2ccccc12)C(=O)N[C@@H](CCCCN)C(=O)O)[C@@H](C)O)[C@@H](C)O [125I-Var3-pHLIP] (HELM PEPTIDE1{A.C.D.D.Q.N.P.W.R.A.[O=C([C@H](Cc1ccc(O)c(I)c1)N[*:1])[*:2]].L.D.L.L.F.P.T.D.T.L.L.L.D.L.L.W.K}$$$$V2.0; N-terminus and C-terminus assumed)
binding fraction to cells, B/(B + F) × 100% (MDA-MB-231 cells; pH 6.2, 1 h): 24.90 ± 0.96%
binding fraction to cells with an excess of unlabeled peptide (MDA-MB-231 cells; pH 6.2, excess unlabeled peptide 25 μg/well): 1.50 ± 0.11%
binding fraction to cells, B/(B + F) × 100% (MDA-MB-231 cells; pH 6.6, 1 h): 23.88 ± 0.55%
binding fraction to cells, B/(B + F) × 100% (MDA-MB-231 cells; pH 7.0, 1 h): 23.40 ± 0.44%
binding fraction to cells, B/(B + F) × 100% (MDA-MB-231 cells; pH 7.4, 1 h): 12.3 ± 0.80%
binding fraction to cells, B/(B + F) × 100% (MDA-MB-231 cells; pH 7.8, 1 h): 1.30 ± 0.10%
tissue uptake at 1 h [1, 2]: 20.6 ± 5.71 %ID/g
tissue uptake at 2 h [1, 2]: 24.8 ± 3.51 %ID/g
tissue uptake at 4 h [1, 2]: 31.6 ± 15.9 %ID/g
tissue uptake at 24 h [1, 2]: 2.14 ± 0.88 %ID/g
tissue uptake at 48 h [1, 2]: 0.45 ± 0.14 %ID/g
tissue uptake at 1 h ([1]; BALB/c nude, brain, MDA-MB-231 tumor-bearing nude mice, read-out: Distribution, Brain): 1.02 ± 0.08 %ID/g
tissue uptake at 1 h [1, 3]: 2.59 ± 0.5 %ID/g
tissue uptake at 2 h [1, 3]: 3.18 ± 0.35 %ID/g
tissue uptake at 4 h [1, 3]: 2.12 ± 0.33 %ID/g
tissue uptake at 24 h [1, 3]: 0.2 ± 0.09 %ID/g
tissue uptake at 48 h [1, 3]: 0.1 ± 0.06 %ID/g
tissue uptake at 1 h [1, 4]: 1.12 ± 0.28 %ID/g
tissue uptake at 2 h [1, 4]: 0.96 ± 0.32 %ID/g
tissue uptake at 4 h [1, 4]: 0.67 ± 0.21 %ID/g
tissue uptake at 24 h [1, 4]: 0.09 ± 0.03 %ID/g
tissue uptake at 48 h [1, 4]: 0.04 ± 0.01 %ID/g
tissue uptake at 1 h [1, 5]: 3.16 ± 0.67 %ID/g
tissue uptake at 2 h [1, 5]: 3.76 ± 0.37 %ID/g
tissue uptake at 4 h [1, 5]: 3.09 ± 0.44 %ID/g
tissue uptake at 24 h [1, 5]: 0.47 ± 0.12 %ID/g
tissue uptake at 48 h [1, 5]: 0.22 ± 0.07 %ID/g
tissue uptake at 2 h [1, 6]: 2.94 ± 0.71 %ID/g
tissue uptake at 4 h [1, 6]: 2.45 ± 0.32 %ID/g
tissue uptake at 24 h [1, 6]: 0.26 ± 0.06 %ID/g
tissue uptake at 48 h [1, 6]: 0.18 ± 0.06 %ID/g
tissue uptake at 1 h [1, 7]: 18.2 ± 4.14 %ID/g
tissue uptake at 2 h [1, 7]: 18.7 ± 15.6 %ID/g
tissue uptake at 4 h [1, 7]: 23.4 ± 6.56 %ID/g
tissue uptake at 24 h [1, 7]: 2.44 ± 2.14 %ID/g
tissue uptake at 48 h [1, 7]: 0.21 ± 0.21 %ID/g
tissue uptake at 2 h [1, 8]: 1.13 ± 0.12 %ID/g
tissue uptake at 4 h [1, 8]: 0.75 ± 0.27 %ID/g
tissue uptake at 24 h [1, 8]: 0.13 ± 0.07 %ID/g
tissue uptake at 48 h [1, 8]: 0.09 ± 0.05 %ID/g
tissue uptake at 1 h [1, 9]: 1.02 ± 0.07 %ID/g
tissue uptake at 2 h [1, 9]: 0.95 ± 0.07 %ID/g
tissue uptake at 4 h [1, 9]: 0.68 ± 0.2 %ID/g
tissue uptake at 24 h [1, 9]: 0.09 ± 0.02 %ID/g
tissue uptake at 48 h [1, 9]: 0.09 ± 0.01 %ID/g
tissue uptake at 1 h [1, 10]: 9.47 ± 1.54 %ID/g
tissue uptake at 2 h [1, 10]: 8.29 ± 0.52 %ID/g
tissue uptake at 4 h [1, 10]: 5.35 ± 0.93 %ID/g

From paper PMC9281440, “In Vivo Distribution and Therapeutic Efficacy of Radioiodine-Labeled pH-Low Insertion Peptide Variant 3 in a Mouse Model of Breast Cancer” (Molecular Imaging, 2022)
